The source of these data is patent US20120149724A1, “MODULATING ENDOGENOUS BETA-ENDORPHIN LEVELS” (THE GENERAL HOSPITAL CORPORATION, priority 2009, published 2012).

In one test the test system is Sprague-Dawley rats. Nature of the test: actimetry (locomotor activity) in rats over a daily tail radiation regimen. It is filed as in vivo. The settings on record: 2 Gy/day tail radiation for 6 weeks; 1 mg/kg ip 15 minutes before actimetry. How it is done:
Eight week old male Sprague-Dawley rats underwent a 6-week regimen of 2 Gy/day daily tail radiation of mock exposure. Prior to the start of the regimen, baseline activity was recorded as total distance traveled in 30 minutes in the actimetry chamber. During the regimen and for 2 weeks following the end of the regimen, actimetry measurements were made once per week, and for these measurements, half of the tail-irradiated rats and half of the mock-exposed rats were injected with naloxone (1 mg/kg, ip) 15 minutes prior to actimetry testing, and the other half of tail-irradiated and mock-exposed animals were injected with saline (ip) 15 minutes prior to actimetry testing. In addition, blood was drawn prior to, once weekly during, and once weekly for 2 weeks following the end of the regimen for β-endorphin measurement. […] Top graphs show results for tail-irradiated rats, bottom graphs show results for mock-exposed controls. Left side graphs show results for rats injected with saline prior to actimetry testing, right side graphs show results for rats injected with naloxone prior to actimetry testing. […] Error bars indicate +/−SEM, and (*) indicates p<0.05 by two-tailed Student's t-test with respect to baseline values for that group.

A further test has as its system UV-exposed C57BL/6 mice. Nature of the test: pain thresholds (von Frey and hot plate) over daily low-dose UVB exposure. It counts as in vivo. Conditions: UVB 50 mJ/cm2/day, 5 days/week for 6 weeks, 10 mg/kg ip 15 minutes before testing. How it is done: To obtain the data shown in FIGS. 7A, 7B and 7C, eight-week-old male C57BL/6 mice were dorsally depilated and either exposed to 50 mJ/cm2/day or mock exposed 5 days/week for 6 weeks. Blood was drawn prior to, once weekly during, and once weekly for 2 weeks following the end of the regimen for β-endorphin measurement. In addition, pain thresholds in both the von Frey and hot plate assay were measured prior to, twice weekly during, and twice weekly for 2 weeks following the end of the regimen. One subgroup of UV-exposed mice and one subgroup of mock-treated mice were injected with naloxone (10 mg/kg, ip) and another subgroup of UV-exposed mice and mock-treated mice were injected with saline (ip) 15 minutes prior to each pain threshold testing. Pain threshold measurements were taken on 2 non-consecutive days and on a different day from the blood draws each week. […] Error bars indicate +/−SEM. […] Error bars indicate +/− standard deviation. […]
Eight-week-old male C57BL/6 mice were dorsally depilated and either exposed to 50 mJ/cm2/day or mock exposed 5 days/week for 6 weeks. […] In addition, pain thresholds in both the von Frey and hot plate assay were measured prior to, twice weekly during, and twice weekly for 2 weeks following the end of the regimen. […]

Test [1] deals with chronically UV-irradiated mice. Nature of the test: naloxone-induced somatic symptoms of opiate withdrawal after chronic UVB exposure. It counts as in vivo. The settings on record: UVB 50 mJ/cm^2/day for 6 weeks, 2 mg/kg sc, counted over 25 minutes. How it is done:
To obtain the data shown in FIG. 9, mice were either exposed to 50 mJ/cm^2/day UVB radiation, or mock-exposed 5 days per week for 6 weeks. These two groups of mice were divided into subgroups and either injected with a dose of 2 mg/kg naloxone(sc) or saline. […] The symptoms observed include wet dog shake, paw tremor, jumping, grooming, teeth chatter, rearing and diarrhea.
This example assesses physical dependence to opiate agents by evaluating withdrawal symptoms in mice upon acute administration of an opiate antagonist. In mice, symptoms of opiate withdrawal include shaking vigorously (called a “wet-dog shake”), paw tremors, teeth chattering, jumping, rearing, increased grooming, and diarrhea. The occurrence of these symptoms were measured in mice either exposed to 50 mJ/cm^2/day UVB radiation 5 days per week for 6 weeks or mock-exposed on the same schedule. One subgroup of each group of mice was injected with 2 mg/kg subcutaneous naloxone and number of occurrences of each of the above-mentioned symptoms was counted over 25 minutes immediately following naloxone injection. The other subgroup was administered a subcutaneous injection of saline before the 25-minute observation period.

For a further test, the system named is plasma β-endorphin. In words: plasma β-endorphin by radioimmunoassay over a tail radiation or mock regimen. It is filed as in vivo, mice. The source says: FIG. 4C illustrates the plasma beta-endorphin fluctuations in the C57BL/6 mice as described in FIGS. 4A and 4B. To obtain the data shown in FIG. 4C, blood was drawn once per week over the 6 week regimen, and for the 2 weeks following. The blood was drawn in the morning prior to the radiation treatment for that day. FIG. 4C uses data obtained by C57BL/6 male mice, 10 mice per treatment group. Mock exposed mice remained stable throughout the regimen.
For all experiments, mice used were in a C57BL/6 background. In all experiments wild type mice were used, and in select experiments mice containing homozygous deletion of the p53 gene (p53−/−) were used. All mice were 8 weeks old at the beginning of each experiment. […] Blood Draws and Preparation for Radioimmunoassay Mice were placed in a standard restrainer. A 30-gauge needle was inserted into the tail vein, and 200 uL of blood was collected in EDTA microvette tubes containing 5 TIU aprotinin. Tubes were maintained on ice at all times. Tubes were spun at 3500 rpm at 4° C. for 20 minutes. Plasma was isolated for β-endorphin measurement by commercially available radioimmunoassay (Phoenix Pharmaceuticals). […]

“Also recorded” adds a separate entry of the source.

Turning to `C=CCN1CC[C@]23c4c5ccc(O)c4O[C@H]2C(=O)CC[C@@]3(O)[C@H]1C5` [naloxone], the “effect on radiation-induced lethargy (total distance traveled in 30 minutes)” value with Sprague-Dawley rats is “Naloxone-Reversible Lethargy”. Also, the “effect on UV-induced changes in pain thresholds / opioid-mediated phenotypes” value in the test on UV-exposed C57BL/6 mice is reported as “naloxone-reversible; also recorded: reversed”. In addition, the jumping behavior entry in test [1] was “only group to show any jumping behavior at all”. In test [1] (compared to all other groups), the “occurrences of wet dog shakes, teeth chattering, paw tremoring, grooming and rearing” value was “significantly more”. For the same compound, in the test with plasma β-endorphin (mock-exposed mice, 10 mg/kg), the “change in plasma beta-endorphin levels” value is on record as “no increase in plasma beta-endorphin levels”. The “change in plasma β-endorphin” value with plasma β-endorphin (tail-irradiated mice, 10 mg/kg before behavioral testing, over the radiation regimen) is “most dramatic increase in plasma β-endorphin; also recorded: elevations in systemic beta-endorphin over and above the elevation caused by tail radiation alone”.
